Measured values taken from patent US8377473B2, “Slow release magnesium composition and uses thereof” (Magceutics, Inc., priority 2009, dated 2013).

Columns and labels:
[1] = Magnesium content in the cerebrospinal fluid; details: 24 days of treatment, approximately 50 mg/kg/day elemental magnesium via drinking water
Excerpt: (§1) Statistical analysis: All data were approximated with a normal distribution. […] One-way analysis of variance was used to analyze the cerebrospinal fluid data. GraphPad prism was used for data analysis (version 5.00, GraphPad software Inc.).

rats [2] = assay: Margin of safety: incidence of diarrhea with magnesium preparations in drinking water; details: elemental magnesium via drinking water for 4 days, non-linear regression
Experimental: Animals: Adult male Sprague-Dawley rats were obtained from Wei Tong Li Hua Beijing, China. Rats were individually-housed with free access to standard food and water under a 12:12 h reversed light-dark cycle, with light onset at 8:00 p.m. […] All experimental procedures were approved by the Tsinghua University Committees on Animal Care.
(Magceutics Inc., USA), Magnesium chloride and glycinate (Modern Eastern Fine Chemical, China), magnesium gluconate and citrate (Sigma-Aldrich, Germany). Lactose was obtained from Biobasic Inc (Beijing, China).
The magnesium dose dissolved in the daily intake volume of water was determined based on intake of ˜30 ml/day/rat. Animals were supplied with the magnesium supplemented drinking water for 4 days, after which time the number of animals that developed diarrhea was monitored and calculated as a percentage of the total number of animals in the respective group.
as §1

diabetic patients = details: nearly 1 g of magnesium daily for 1 month; cited from earlier work
[3] = cited from earlier work
rats [4] = details: young and aged rats, cited from earlier work

| Compound | magnesium concentration in cerebrospinal fluid ([Mg2+]CSF) [1] | TD50 (toxic dose required to induce diarrhea in 50% of animals) (rats [2]) [mg/kg/day] | increase of serum magnesium level (diabetic patients) | metabolic control (diabetic patients) | magnesium absorption rate ([3]; Firoz and Graber 2001) | bioavailability ([3]; Ranade and Somberg 2001) [%] | cognitive function (rats [4]; food containing 2% magnesium oxide for 8 days) | side-effect (rats [4]; food containing 2% magnesium oxide) |
| --- | --- | --- | --- | --- | --- | --- | --- | --- |
| [Cl-].[Cl-].[Mg+2] [magnesium chloride] | relatively limited effect | 90.0 |  |  |  |  |  |  |
| [O]=[Mg] [magnesium oxide] |  |  | about 10% | only minor improvement | about 4% | 4 | some sign of improvement | diarrhea and weight loss |
| magnesium gluconate |  | 99.7 |  |  |  |  |  |  |
